One data set concerns the target D2 receptor (Rattus norvegicus, UniProt P61169). Briefly: D2 receptor radioligand binding (3H-spiperone). The note with it: 3H-spiperone, mean ± SEM of three experiments.
The target in another data set is 5-HT2A receptor (Rattus norvegicus, UniProt P14842). The data set can be described thus: 5-HT2A receptor radioligand binding (3H-ketanserin). The note with it: rat brain cortex, 3H-ketanserin, mean ± SEM of three experiments.
In a further data set the target is T1, D2L receptor (Homo sapiens, UniProt P14416).
T1 construct: expressed in transfected cells; host or cells: HEK293
Briefly: Intrinsic activity, FLIPR calcium assay, HEK293/D2L. It counts as cell-based.

Where [1] appears, read: Receptor Affinity Ki ± SEM D2, rat striatum.
Setting [2] is: Receptor Affinity Ki ± SEM 5-HT2A.
[3] abbreviates: read-out: Receptor Affinity Ki ± SEM D2, rat striatum.
[4] abbreviates: read-out: Receptor Affinity Ki ± SEM 5-HT2A.

These results are taken from publication PMC7571155, “Design, Synthesis and Biological Investigation of Flavone Derivatives as Potential Multi-Receptor Atypical Antipsychotics” (Molecules, 2020).

Like-named read-outs stand apart in the source and are kept apart here.

T1 sequence (P14416 whole entry): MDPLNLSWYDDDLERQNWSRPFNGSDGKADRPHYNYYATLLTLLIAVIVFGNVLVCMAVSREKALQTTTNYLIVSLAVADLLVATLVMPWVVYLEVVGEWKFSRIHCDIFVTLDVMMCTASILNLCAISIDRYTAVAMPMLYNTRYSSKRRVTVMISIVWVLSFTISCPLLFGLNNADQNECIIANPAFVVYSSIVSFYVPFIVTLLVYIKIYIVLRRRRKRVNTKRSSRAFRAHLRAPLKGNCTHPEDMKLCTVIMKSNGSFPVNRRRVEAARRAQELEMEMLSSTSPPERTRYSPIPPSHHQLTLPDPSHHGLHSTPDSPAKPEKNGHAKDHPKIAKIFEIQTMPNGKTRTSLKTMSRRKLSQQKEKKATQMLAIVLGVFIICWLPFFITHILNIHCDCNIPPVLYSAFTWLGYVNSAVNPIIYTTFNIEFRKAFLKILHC
5-HT2A receptor, sequence (P14842 whole entry): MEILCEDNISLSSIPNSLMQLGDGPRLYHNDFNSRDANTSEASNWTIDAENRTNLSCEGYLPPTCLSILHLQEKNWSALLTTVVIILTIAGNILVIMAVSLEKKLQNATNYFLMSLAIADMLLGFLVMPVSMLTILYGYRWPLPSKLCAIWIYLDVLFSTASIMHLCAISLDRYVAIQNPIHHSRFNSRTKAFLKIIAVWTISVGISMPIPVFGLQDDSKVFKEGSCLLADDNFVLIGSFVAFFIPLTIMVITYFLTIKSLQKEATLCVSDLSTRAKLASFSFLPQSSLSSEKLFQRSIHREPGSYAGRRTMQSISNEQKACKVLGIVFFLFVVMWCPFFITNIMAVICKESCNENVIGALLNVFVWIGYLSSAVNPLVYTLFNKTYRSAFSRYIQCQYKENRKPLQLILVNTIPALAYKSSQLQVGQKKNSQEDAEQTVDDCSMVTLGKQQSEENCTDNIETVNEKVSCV
D2 receptor, sequence (P61169 whole entry): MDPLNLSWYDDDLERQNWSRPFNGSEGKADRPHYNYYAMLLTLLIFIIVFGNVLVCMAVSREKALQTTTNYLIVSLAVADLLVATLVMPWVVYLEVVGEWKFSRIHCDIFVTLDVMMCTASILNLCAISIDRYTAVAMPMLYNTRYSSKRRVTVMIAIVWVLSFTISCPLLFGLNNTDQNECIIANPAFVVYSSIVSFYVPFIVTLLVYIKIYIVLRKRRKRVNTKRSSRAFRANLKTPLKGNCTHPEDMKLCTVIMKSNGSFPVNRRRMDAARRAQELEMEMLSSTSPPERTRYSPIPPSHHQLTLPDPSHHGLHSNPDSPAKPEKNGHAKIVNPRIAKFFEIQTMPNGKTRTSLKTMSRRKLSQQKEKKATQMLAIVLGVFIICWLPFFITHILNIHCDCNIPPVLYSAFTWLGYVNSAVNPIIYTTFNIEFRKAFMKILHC

`Cc1cc2c(cc1OCCCCN1CCC(c3noc4cc(F)ccc34)CC1)OCCC2=O` [Compound 13c, 7-(4-(4-(6-Fluorobenzo[d]isoxazol-3-yl)piperidin-1-yl)butoxy)-6-methylchroman-4-one]: the melting point lay in the range of 91 to 93 °C. In addition, the Ki at D2 receptor (setting [1]) is 25.8 ± 3.9 nM. The molecule also yielded a Ki at 5-HT2A receptor (setting [2]) of 15.9 ± 2.3 nM.

For the molecule `CC1(C)CC(=O)c2ccc(OCCCCN3CCN(c4ncccn4)CC3)cc2O1` [Compound 6f, 2,2-Dimethyl-7-(4-(4-(pyrimidin-2-yl)piperazin-1-yl)butoxy) chroman-4-one], the melting point fell in the range of 128 to 131 °C. For the same molecule, at D2 receptor (setting [1]), the Ki is > 10000 nM. This molecule displayed a Ki at 5-HT2A receptor (setting [2]) of 1140 ± 152 nM.

Turning to `O=C1CC2(CCCC2)Oc2cc(OCCCN3CCC(c4noc5cc(F)ccc45)CC3)ccc21` [Compound 9c, 7-(3-(4-(6-Fluorobenzo[d]isoxazol-3-yl)piperidin-1-yl)propoxy)spiro[chromane-2,1′-cyclopentan]-4-one], the melting point is 91 to 93 °C. The molecule further gave a Ki at D2 receptor (setting [1]) of 18.9 ± 2.1 nM. The same molecule showed a Ki at 5-HT2A receptor (setting [2]) of 8.3 ± 0.9 nM.

Turning to `O=C1CC2(CCCCC2)Oc2cc(OCCCCN3CCC(c4nsc5ccccc45)CC3)ccc21` [Compound 9k, 7-(4-(4-(Benzo[d]isothiazol-3-yl)piperidin-1-yl)butoxy)spiro[chromane-2,1′-cyclohexan]-4-one], the melting point lay within 129 to 130 °C. Further, at D2 receptor (setting [1]), the Ki came to 35.1 ± 4.7 nM. The molecule further registered a Ki on 5-HT2A receptor (setting [2]) of 75.6 ± 8.6 nM.

`CC1(C)CC(=O)c2ccc(OCCCCN3CCN(Cc4ccc5c(c4)OCO5)CC3)cc2O1` [Compound 6g, 7-(4-(4-(Benzo[d] [1, 3]dioxol-5-ylmethyl)piperazin-1-yl)butoxy)-2,2-dimethylchroman-4-one]: the melting point lay in the range of 112 to 114 °C. At D2 receptor (setting [1]), this molecule showed an inhibitory constant (Ki) of 1140 ± 140 nM. For the same molecule, the inhibitory constant (Ki) on 5-HT2A receptor (setting [2]) is 380 ± 39.1 nM.

As to `CC1CC(=O)c2ccc(OCCCCN3CCC(c4noc5cc(F)ccc45)CC3)cc2O1` (centres unmarked) [Compound 16a, 7-(4-(4-(6-Fluorobenzo[d]isoxazol-3-yl)piperidin-1-yl)butoxy)-2-methylchroman-4–one], the melting point is 95 to 97 °C. This molecule yielded a Ki at D2 receptor (setting [1]) of 19.7 ± 2.7 nM. The same molecule displayed a Ki at 5-HT2A receptor (setting [2]) of 7.9 ± 0.5 nM.

In the case of `O=C1CC2(CCCCC2)Oc2cc(OCCCCN3CCN(c4cccc(Cl)c4Cl)CC3)ccc21` [Compound 9j, 7-(4-(4-(2,3-Dichlorophenyl)piperazin-1-yl)butoxy)spiro[chromane-2,1′-cyclohexan]-4-one], the melting point was 119 to 121 °C. Further, on D2 receptor (setting [1]), the Ki came to 81.7 ± 9.7 nM. The same molecule came in with a Ki on 5-HT2A receptor (setting [2]) of 35.8 ± 5.2 nM.

`CC1(C)CC(=O)c2ccc(OCCCCN3CCN(c4cccc(C(F)(F)F)c4)CC3)cc2O1` [Compound 6c, 2,2-Dimethyl-7-(4-(4-(3-(trifluoromethyl)phenyl)piperazin-1-yl)butoxy) chroman-4-one] registered a melting point of 139 to 140 °C. Affinity at D2 receptor (setting [1]) was put at a Ki of 1130 ± 108 nM. On 5-HT2A receptor (setting [2]), this molecule showed a Ki of 147 ± 16.9 nM.

In the case of `CC1(C)CC(=O)c2ccc(OCCCCN3CCN(c4ccccn4)CC3)cc2O1` [Compound 6e, 2,2-Dimethyl-7-(4-(4-(pyridin-2-yl)piperazin-1-yl)butoxy) chroman-4-one], the melting point was 127 to 129 °C. The molecule further registered a Ki at D2 receptor (setting [1]) of 4590 ± 510 nM. Moreover, the Ki on 5-HT2A receptor (setting [2]) turned out to be 722 ± 64.9 nM.

“7-(4-(4-(6-Fluorobenzo[d]isoxazol-3-yl)piperidin-1-yl)butoxy)-5-methylchroman-4-one [Compound 13b]”: the Ki at D2 receptor (setting [3]) turned out to be 28.9 ± 3.4 nM; at 5-HT2A receptor (setting [4]), 10.5 ± 1.3 nM.

As to `CC1(C)CC(=O)c2ccc(OCCCCN3CCN(c4cccc5sccc45)CC3)cc2O1` [Compound 6h, 7-(4-(4-(Benzo[b]thiophen-4-yl)piperazin-1-yl)butoxy)-2,2-dimethylchroman-4-one], the inhibitory constant (Ki) at D2 receptor (setting [1]) worked out at 43.1 ± 5.7 nM; on 5-HT2A receptor (setting [2]), 55.2 ± 4.9 nM.

In the case of `CC1(C)CC(=O)c2ccc(OCCCCN3CCN(c4ccccc4)CC3)cc2O1` [Compound 6a, 2,2-Dimethyl-7-(4-(4-phenylpiperazin-1-yl)butoxy) chroman-4-one], the melting point fell in the range of 131 to 133 °C. At D2 receptor (setting [1]), the Ki is 553 ± 68.7 nM. Moreover, on 5-HT2A receptor (setting [2]), affinity was put at a Ki of 89.8 ± 11.3 nM.

For the molecule `CC1Oc2cc(OCCCCN3CCC(c4noc5cc(F)ccc45)CC3)ccc2C(=O)C1C` (centres unmarked) [Compound 21, 7-(4-(4-(6-fluorobenzo[d]isoxazol-3-yl)piperidin-1-yl)butoxy)-2,3-dimethylchroman-4-one], the melting point lay within 82 to 84 °C. This molecule also returned a Ki on D2 receptor (setting [1]) of 28.4 ± 3.2 nM. The same molecule registered an inhibitory constant (Ki) on 5-HT2A receptor (setting [2]) of 2.4 ± 1.9 nM.

In turn, `COc1ccccc1N1CCN(CCCOc2ccc3c(c2)OC(C)(C)CC3=O)CC1` [Compound 6k, 7-(3-(4-(2-Methoxyphenyl)piperazin-1-yl)propoxy)-2,2-dimethylchroman-4-one] displayed a melting point of 103 to 105 °C. At D2 receptor (setting [1]), this molecule came in with an inhibition constant (Ki) of 3160 ± 466 nM. This molecule had a Ki at 5-HT2A receptor (setting [2]) of 33.1 ± 4.5 nM.

Regarding `COc1ccccc1N1CCN(CCCOc2ccc3c(c2)OC2(CCCC2)CC3=O)CC1` [Compound 9a, 7-(3-(4-(2-Methoxyphenyl)piperazin-1-yl)propoxy) spiro[chromane-2,1′-cyclopentan]-4-one], the melting point lay in the range of 128 to 130 °C. The molecule further returned a Ki at D2 receptor (setting [1]) of 3850 ± 328 nM. The same molecule showed a Ki at 5-HT2A receptor (setting [2]) of 72 ± 6.8 nM.

`CC1(C)CC(=O)c2ccc(OCCCCN3CCN(c4ccccc4F)CC3)cc2O1` [Compound 6b, 7-(4-(4-(2-Fluorophenyl)piperazin-1-yl)butoxy)-2,2-dimethylchroman-4-one] had a melting point of 135 to 137 °C. On D2 receptor (setting [1]), this molecule came in with a Ki of 777 ± 84.7 nM. Also, the inhibition constant (Ki) on 5-HT2A receptor (setting [2]) was determined as 72.5 ± 8.4 nM.

In turn, `COc1ccccc1N1CCN(CCCCOc2ccc3c(c2)OC2(CCCC2)CC3=O)CC1` [Compound 9b, 7-(4-(4-(2-Methoxyphenyl)piperazin-1-yl)butoxy) spiro[chromane-2,1′-cyclopentan]-4-one] had a melting point of 96 to 98 °C. Moreover, the Ki on D2 receptor (setting [1]) stood at 3790 ± 409 nM. This molecule registered a Ki on 5-HT2A receptor (setting [2]) of 61.7 ± 8.6 nM.

As to `CC1(C)CC(=O)c2ccc(OCCCCN3CCN(c4nsc5ccccc45)CC3)cc2O1` [Compound 6i, 7-(4-(4-(Benzo[d]isothiazol-3-yl)piperazin-1-yl)butoxy)-2,2-dimethylchroman-4-one], the melting point fell in the range of 119 to 120 °C. The molecule further yielded a Ki on D2 receptor (setting [1]) of 26.2 ± 2.7 nM. Moreover, at 5-HT2A receptor (setting [2]), affinity was put at a Ki of 19.5 ± 2.2 nM.

Turning to `CC1CC(=O)c2ccc(OCCCCN3CCC(c4noc5cc(F)ccc45)CC3)c(Cl)c2O1` (centres unmarked) [Compound 16b, 8-Chloro-7-(4-(4-(6-fluorobenzo[d]isoxazol-3-yl)piperidin-1-yl)butoxy)-2-methylchroman-4-one], the melting point lay in the range of 99 to 101 °C. Besides, the affinity on D2 receptor (setting [1]), expressed as Ki, was 21.4 ± 2.4 nM. Besides, the affinity on 5-HT2A receptor (setting [2]), expressed as Ki, was 8.1 ± 1.1 nM.

As to `O=C1CCOc2cc(OCCCCN3CCC(c4noc5cc(F)ccc45)CC3)ccc21` [Compound 13a, 7-(4-(4-(6-Fluorobenzo[d]isoxazol-3-yl)piperidin-1-yl)butoxy)chroman-4-one], the Ki at D2 receptor (setting [1]) was 22.5 ± 2.6 nM; at 5-HT2A receptor (setting [2]) it was 9.6 ± 0.8 nM.

Take `Cc1cccc(N2CCN(CCCCOc3ccc4c(c3)OC3(CCCCC3)CC4=O)CC2)c1C` [Compound 9i, 7-(4-(4-(2,3-Dimethylphenyl)piperazin-1-yl)butoxy)spiro[chromane-2,1′-cyclohexan]-4-one]: the melting point was in the range of 138 to 140 °C. Further, on D2 receptor (setting [1]), the Ki worked out at 154 ± 19.6 nM. At 5-HT2A receptor (setting [2]), the affinity corresponds to a Ki of 67.5 ± 7.4 nM.

Regarding “7-(4-(4-(6-Fluorobenzo[d]isoxazol-3-yl)piperidin-1-yl)butoxy)-8-methylchroman-4-one [Compound 13d]”, the Ki at D2 receptor (setting [3]) is 22.9 ± 3.1 nM; on 5-HT2A receptor (setting [4]), 13.7 ± 1.9 nM.

`COc1ccccc1N1CCN(CCCCOc2ccc3c(c2)OC(C)(C)CC3=O)CC1` [Compound 6d, 7-(4-(4-(2-Methoxyphenyl)piperazin-1-yl)butoxy)-2,2-dimethylchroman-4-one]: the melting point is 128 to 130 °C. Further, the affinity on D2 receptor (setting [1]), expressed as Ki, was 2350 ± 317 nM. For the same molecule, the Ki at 5-HT2A receptor (setting [2]) is 86.8 ± 5.6 nM.

As to `NCCc1ccc(O)c(O)c1` [dopamine], at D2L receptor (D2L, agonist mode, 10 μM, n = 3), the “Activation (10 μM, %)” value was determined as 101.3 ± 5.3%.

Consider `CN1CCc2cc(Cl)c(O)cc2[C@@H](c2ccccc2)C1` [SCH23390], for which the IC50 on D2L receptor (D2L, antagonist mode, read-out: IC50) came to 31.6 nM. The inhibition at 10 µM on D2L receptor (HEK293, read-out: Inhibition (10 μM, %), D2L, antagonist mode, 10 μM, n = 3) was determined as 99.1 ± 3.2%.

Regarding `CC1(C)CC(=O)c2ccc(OCCCN3CCC(c4noc5cc(F)ccc45)CC3)cc2O1` [Compound 6l, 7-(3-(4-(6-Fluorobenzo[d]isoxazol-3-yl)piperidin-1-yl)propoxy)-2,2-dimethylchroman-4-one], the melting point was in the range of 116 to 118 °C. Besides, affinity at D2 receptor (setting [1]) was put at a Ki of 18.6 ± 2.3 nM. The same molecule returned a Ki at 5-HT2A receptor (setting [2]) of 6.7 ± 0.7 nM.

On to `O=C1CC2(CCCCC2)Oc2cc(OCCCN3CCN(c4ccccc4C(F)(F)F)CC3)ccc21` [Compound 9f, 7-(3-(4-(2-(Trifluoromethyl)phenyl)piperazin-1-yl)propoxy)spiro[chromane-2,1′-cyclohexan]-4-one], for which the melting point lay in the range of 138 to 140 °C. Further, the Ki at D2 receptor (setting [1]) stood at 915 ± 90.3 nM. Moreover, the Ki at 5-HT2A receptor (setting [2]) turned out to be 76.7 ± 9.4 nM.

Molecule `COc1ccccc1N1CCN(CCCOc2ccc3c(c2)OC2(CCCCC2)CC3=O)CC1` [Compound 9e, 7-(3-(4-(2-Methoxyphenyl)piperazin-1-yl)propoxy)spiro[chromane-2,1′-cyclohexan]-4-one] yielded a melting point of 105 to 107 °C. Also, the Ki on D2 receptor (setting [1]) was determined as 2050 ± 229 nM. The affinity at 5-HT2A receptor (setting [2]) corresponds to a Ki of 93.5 ± 7.9 nM.
